One data set has as its system PDH. Put plainly: PDH enzymatic activity microtiter plate assay. Particulars: MDA-MB-468 and MCF7, 50 μM. It is filed as cell-based, human. Here is the method:
In FIG. 23A PDH enzymatic activity was determined in doxycycline-responsive MCF7-tet-off (left) and Hs578t-Control or RUNX2 KD cells (right) or non-targeting control siRNA (NTC=RUNX2+) versus RUNX2 KD (55.5 cells=RUNX2 KD) using an antibody-specific microtiter plate assay. Results are expressed as the change in Absorbance at 450 nm per minute per mg protein (ΔmOD450/min/mg) (*p<0.05). In FIG. 23B PDH activity was determined in MDA-MB-468 (left) and MCF7 (right) BC cell lines with or without compound 1 treatment (50 μM) for the indicated time period.

A further data set has as its system MCF7 RUNX2 Tet.OFF cells. Description: Suspension culture tumorsphere formation. It counts as cell-based, human. As to conditions: for tumorsphere diameter: 50 μM compound 1, 12 days. Here is the method: MCF7 Tet.OFF cells were grown in the presence (+Dox, RUNX2 negative) or absence (−Dox, RUNX2 positive) of doxycycline for 3 days. Cells were then scraped and counted. 60,000 cells were plated in each well of a 6-well ultra-low attachment plate (Corning; 3471) in Promocell Basal Medium (Promocell; c-22211) complete with Supplement Mix (Promocell; c-39216). Cells were then treated with or without 2 ng/mL TGFβ (R&D Systems; 240-B-002). After growth for 10-15 days, wells were photographed and tumorsphere diameters were measured from photographic images (mm). Colony diameters were calculated using the formula: (L+W)/2. Representative photographs were obtained at 4× magnification. […] For TAZ siRNA knockdown experiments, TAZ siRNA was transfected (as below) into MCF7 Tet.OFF cells and 24 hr later cells were scraped and placed into suspension as described above. Small-Interfering RNA (siRNA) pool targeting RUNX1, RUNX2, and non-targeting control were purchased from Dharmacon, and transfected into cells using RNAiMAX Reagent (Invitrogen). Western blot analysis was performed 48 hrs after transfection.

The test system of a further data set is Br-001 tumor. Put plainly: TNBC-PDX Br-001 model. It is filed as in vivo, nude mice. Particulars: 10 mg/kg. Here is the method: For the PDX models, Br-001 tumor fragments derived from a patient with TNBC (University of Maryland, Translational Core Facility) were inoculated subcutaneously in female NOD scid gamma (NSG) mice (P1). After P1 tumors were grown, tumors were excised, fragmented and inoculated to a new group of NSG mice (P2). After P2 tumors were grown, they were excised, fragmented, and inoculated into nude mice (P3). When the size of the tumors reached 200˜250 mm^3, mice were randomized into two groups, and received i.p. injection of vehicle or compound 1 (10 mg/kg) twice a week for 11 days.

For the next data set, the system named is RUNX2 responsive genes. Put plainly: Q-RT-PCR of RUNX2 responsive genes. It counts as cell-based, human. Particulars: 50 μM. As to the method: Total RNA was extracted using TRIzol (Life Technologies). One […] of total RNA was reverse transcribed with oligo-(dT) primer using the SuperScript first-strand synthesis system (Invitrogen) to synthesize cDNA. One μl of each cDNA was used for real-time RT-PCR using QuantiFast SYBR Green PCR Kit […]. mRNA expression of gene of interest relative to β-actin was calculated based on the threshold cycle (Ct) as 2^−D(DCt) method.

The subject of data set [1] is MCF7-tet-off or MDA-231 cells. Put plainly: Calcein-AM viability assay. It is filed as cell-based, human. As to conditions: over 24 hrs. Here is the method:
In FIGS. 9A-9C compound 1 was added at the initial day of cell plating. Tumorspheres of MCF7-tet-off (−Doxy) cells were photographed for 18 days at ×40 and ×100 magnifications (FIG. 9A), and counted at the final day at ×40 magnification (FIG. 9C). Tumorspheres of MDA-231, MDA-468 and MCF7 cells at day 7 are shown (FIG. 9B). Spheres of MDA-231 and MCF7 cells were counted at day 18 with ×20 magnification. Spheres of vehicle-treated MDA-468 cells were counted at day 7 with ×20 magnification as they became fragile and disrupted 7 days after incubation. In FIG. 9C sphere number (No.) was counted from 9 fields per well. Data presented as mean±SD. Experiments were done in triplicate and repeated three times. *, P<0.05 compared to +Doxy; ^#, P<0.05 compared to −Doxy with vehicle treatment. Box, RUNX2 induction upon Doxy removal from MCF7-tet-off cells (−D). In FIG. 9D to ensure robust sphere formation, compound 1 was added 4 days after cell plating (D4+), and cells were further incubated for 5 days (D5) or for 7 days (D7). In FIG. 9E the cellular invasive ability of MCF7-tet-off cells (left) was evaluated by the 96 Well BME Cell Invasion Assay and xCELLigence systems in vitro, respectively. In parallel, similar amount of cells were plated in separate plates and treated with compound 1 for 24 hrs, and Calcein-AM assay was performed (right). […]

The structures appear in SMILES notation.

Take `O=C(O)C1C2C=CC(C2)C1C(=O)Nc1ccc(Cl)c(Cl)c1` (stereo not drawn) [compound 1, 3-(N-(3,4-dichlorophenyl)carbamoyl)-5-norbornene-2-carboxylic acid]: the PDH activity result in the data set with PDH is “increases PDH activity”. The same molecule gave a tumorsphere diameter in the data set on MCF7 RUNX2 Tet.OFF cells (RUNX2 negative cells) of 6.37±1.78 mm. Besides, in the data set with MCF7 RUNX2 Tet.OFF cells (RUNX2 positive cells, 50 μM compound 1), the “fold inhibition of tumorsphere diameter relative to vehicle” value was approximately 4 fold. The tumorsphere diameter in the data set on MCF7 RUNX2 Tet.OFF cells (RUNX2 positive cells) stood at 4.83±1.87 mm. The Ki-67 expression entry in the data set on Br-001 tumor (i.p.) is “markedly reduced”. Besides, in the data set with Br-001 tumor (i.p., 11 days), the tumor volume entry was “significant decrease”. Besides, in the data set on Br-001 tumor (nude mice), the “body weight and general health” value is reported as “did not significantly decrease body weight”. In the data set with RUNX2 responsive genes (MDA-231 cells, 6 hrs), the “level of Sirt6 mRNA” value is “increased”; the “transcriptional levels of Glut-1 and LDHA” value is reported as “reduced”. In the data set with RUNX2 responsive genes (ectopic RUNX2-expressing MCF7 and T47D cells, 72 hrs), the “mRNA expression levels of MMP13, VEGF, and MMP9” value is “repressed”. Also, the “RUNX2-increased mRNA level of Glut-1 and LDHA” value in the data set with RUNX2 responsive genes (ectopic RUNX2-expressing T47D and MCF7 cells, 72 hrs) is on record as “significantly inhibited”. Besides, in data set [1], the viability entry is recorded as “little effect”.

Source of the values: patent US11634381B2, “RUNX2 transcription factor inhibitors and uses thereof” (University of Maryland, Baltimore, priority 2015, dated 2023).
